Source: patent US20070160531A1 (priority 1995, published 2007)

Test system: Rat Lung
Settings: in vivo, iv

^3H-daunomycin
% in lung (total drug in the lung as a percentage of the original dose): 0.65% | % inj/g tissue: 0.63 % inj/g
